This assay concerns BDF1 mice, colon carcinoma 38 sc, T/C %. Description: NCI In Vivo Anticancer Drug Screen. Data for tumor model Colon Carcinoma 38 (subcutaneous) in B6D2F1 (BDF1) mice. The procedure, abridged:
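Ratio of survival or tumor size, compound-treated animals relative to vehicle controls, in tumor-bearing mice.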

The mark [1] stands for this setting: endpoint: median tumor weight (est.), dose: 25.0 mg/kg/injection, schedule: Q07DX002 (ip), vehicle: Klucel (hydroxypropylcellulose) (HPC), higher = larger tumour.
The mark [2] stands for this setting: endpoint: median tumor weight (est.), dose: 6.25 mg/kg/injection, schedule: Q07DX002 (ip), vehicle: saline, higher = larger tumour.
[3] abbreviates: endpoint: median tumor weight (est.), dose: 12.5 mg/kg/injection, schedule: Q07DX002 (ip), vehicle: saline, higher = larger tumour.
[4] abbreviates: endpoint: median tumor weight (est.), dose: 12.5 mg/kg/injection, schedule: Q07DX002 (ip), vehicle: saline with Tween-80, higher = larger tumour.
Setting [5] is: endpoint: median tumor weight (est.), dose: 25.0 mg/kg/injection, schedule: Q07DX002 (ip), vehicle: saline with Tween-80, higher = larger tumour.
[6] abbreviates: endpoint: median tumor weight (est.), dose: 50.0 mg/kg/injection, schedule: Q07DX002 (ip), vehicle: saline with Tween-80, higher = larger tumour.
Setting [7] is: endpoint: median tumor weight (est.), dose: 100.0 mg/kg/injection, schedule: Q07DX002 (ip), vehicle: saline with Tween-80, higher = larger tumour.
[8] abbreviates: endpoint: median tumor weight (est.), dose: 200.0 mg/kg/injection, schedule: Q07DX002 (ip), vehicle: saline with Tween-80, higher = larger tumour.
Where [9] appears, read: endpoint: median tumor weight (est.), dose: 400.0 mg/kg/injection, schedule: Q07DX002 (ip), vehicle: saline with Tween-80, higher = larger tumour.

Each structure is given as a SMILES string. “And” between values parts separate entries of the source, which are not always exact repeats. Identical values can stand only once. Records with an inconclusive call do not appear.

For the compound `Nc1nc(N)c2cc(CNc3ccc(C(=O)NC(CC(=O)O)CC(=O)O)cc3)ccc2n1`, the T/C was 120 % of control under setting [1]; 97 % of control (endpoint: median tumor weight (est.), dose: 50.0 mg/kg/injection, schedule: Q07DX002 (ip), vehicle: Klucel (hydroxypropylcellulose) (HPC), higher = larger tumour); 60 % of control (endpoint: median tumor weight (est.), dose: 100.0 mg/kg/injection, schedule: Q07DX002 (ip), vehicle: Klucel (hydroxypropylcellulose) (HPC), higher = larger tumour); 114 % of control (endpoint: median tumor weight (est.), dose: 200.0 mg/kg/injection, schedule: Q07DX002 (ip), vehicle: Klucel (hydroxypropylcellulose) (HPC), higher = larger tumour); 76 % of control (endpoint: median tumor weight (est.), dose: 400.0 mg/kg/injection, schedule: Q07DX002 (ip), vehicle: Klucel (hydroxypropylcellulose) (HPC), higher = larger tumour).
Regarding `COc1cccc2c1C(=O)c1c(O)c3c(c(O)c1C2=O)C[C@@](O)(C(C)=O)C[C@@H]3OC1CC(N(C)C)C(O)C(C)O1` (stereo not given in full), the T/C was 96 % of control (endpoint: median survival time, dose: 6.4 mg/kg/injection, schedule: Q07DX002 (iv), vehicle: saline, higher = longer survival); 105 % of control (endpoint: median survival time, dose: 10.0 mg/kg/injection, schedule: Q07DX002 (iv), vehicle: saline, higher = longer survival); 75 % of control and 89 % of control (endpoint: median tumor weight (est.), dose: 2.25 mg/kg/injection, schedule: Q07DX002 (ip), vehicle: saline, higher = larger tumour).
`NC(CSC(c1ccccc1)(c1ccccc1)c1ccccc1)C(=O)O` (stereo not given): the T/C (endpoint: median tumor weight (est.), dose: 8.0 mg/kg/injection, schedule: Q07DX003 (ip), vehicle: Klucel (hydroxypropylcellulose) (HPC), higher = larger tumour) is 83 % of control; the T/C (endpoint: median tumor weight (est.), dose: 8.0 mg/kg/injection, schedule: Q07DX003 (ip), vehicle: saline with Tween-80, higher = larger tumour) was 78 % of control; the T/C (endpoint: median tumor weight (est.), dose: 16.0 mg/kg/injection, schedule: Q07DX003 (ip), vehicle: Klucel (hydroxypropylcellulose) (HPC), higher = larger tumour) was 53 % of control; the T/C (endpoint: median tumor weight (est.), dose: 16.0 mg/kg/injection, schedule: Q07DX003 (ip), vehicle: saline with Tween-80, higher = larger tumour) is 61 % of control; the T/C (endpoint: median tumor weight (est.), dose: 32.0 mg/kg/injection, schedule: Q07DX003 (ip), vehicle: Klucel (hydroxypropylcellulose) (HPC), higher = larger tumour) is 64 % of control; the T/C (endpoint: median tumor weight (est.), dose: 32.0 mg/kg/injection, schedule: Q07DX003 (ip), vehicle: saline with Tween-80, higher = larger tumour) is 57 % of control. Moreover, the T/C was 46 % of control (endpoint: median tumor weight (est.), dose: 64.0 mg/kg/injection, schedule: Q07DX003 (ip), vehicle: Klucel (hydroxypropylcellulose) (HPC), higher = larger tumour); 75 % of control (endpoint: median tumor weight (est.), dose: 64.0 mg/kg/injection, schedule: Q07DX003 (ip), vehicle: saline with Tween-80, higher = larger tumour); 34 % of control (endpoint: median tumor weight (est.), dose: 128.0 mg/kg/injection, schedule: Q07DX003 (ip), vehicle: Klucel (hydroxypropylcellulose) (HPC), higher = larger tumour); 9 % of control (endpoint: median tumor weight (est.), dose: 128.0 mg/kg/injection, schedule: Q07DX003 (ip), vehicle: saline with Tween-80, higher = larger tumour); 17 % of control (endpoint: median tumor weight (est.), dose: 256.0 mg/kg/injection, schedule: Q07DX003 (ip), vehicle: Klucel (hydroxypropylcellulose) (HPC), higher = larger tumour).
Take `Brc1ccc(C[N+]23CN4CN(CN(C4)C2)C3)cc1`: the T/C runs as follows: (endpoint: median tumor weight (est.), dose: 12.5 mg/kg/injection, schedule: Q07DX003 (ip), vehicle: saline with Tween-80, higher = larger tumour) 121 % of control; (endpoint: median tumor weight (est.), dose: 25.0 mg/kg/injection, schedule: Q07DX003 (ip), vehicle: saline with Tween-80, higher = larger tumour) 79 % of control; (endpoint: median tumor weight (est.), dose: 50.0 mg/kg/injection, schedule: Q07DX003 (ip), vehicle: saline with Tween-80, higher = larger tumour) 108 % of control; (endpoint: median tumor weight (est.), dose: 100.0 mg/kg/injection, schedule: Q07DX003 (ip), vehicle: saline with Tween-80, higher = larger tumour) 95 % of control; (endpoint: median tumor weight (est.), dose: 200.0 mg/kg/injection, schedule: Q07DX003 (ip), vehicle: saline with Tween-80, higher = larger tumour) 62 % of control.
As to `O=NNc1ccccn1`, the T/C reads like this: (endpoint: median tumor weight (est.), dose: 1.56 mg/kg/injection, schedule: Q07DX002 (ip), vehicle: saline, higher = larger tumour) 98 % of control; (endpoint: median tumor weight (est.), dose: 3.12 mg/kg/injection, schedule: Q07DX002 (ip), vehicle: saline, higher = larger tumour) 85 % of control and 96 % of control; under setting [2], 110 % of control; under setting [3], 120 % of control and 106 % of control; (endpoint: median tumor weight (est.), dose: 50.0 mg/kg/injection, schedule: Q07DX002 (ip), vehicle: saline, higher = larger tumour) 95 % of control.
Regarding `CC(=O)C(=O)O.CC(=O)C(=O)O.[NH-]C1CCCCC1[NH-].[Pt+2]` (stereo not given), the T/C by setting is: (endpoint: median tumor weight (est.), dose: 25.0 mg/kg/injection, schedule: Q07DX002 (ip), vehicle: dextrose, higher = larger tumour) 96 % of control; (endpoint: median tumor weight (est.), dose: 50.0 mg/kg/injection, schedule: Q07DX002 (ip), vehicle: dextrose, higher = larger tumour) 44 % of control.
On to `COC(=O)[C@@H]1c2cc3c(c(O)c2[C@@H](OC)C[C@@]1(C)O)C(=O)c1c(O)cc2c(c1C3=O)OC1O[C@@]2(C)[C@H](O)[C@@H](N(C)C)[C@@H]1O`, for which the T/C reads like this: under setting [2], 101 % of control; under setting [3], 115 % of control and 121 % of control; (endpoint: median tumor weight (est.), dose: 12.5 mg/kg/injection, schedule: Q07DX003 (ip), vehicle: suspension in saline, higher = larger tumour) 124 % of control; (endpoint: median tumor weight (est.), dose: 25.0 mg/kg/injection, schedule: Q07DX002 (ip), vehicle: saline, higher = larger tumour) 102 % of control; (endpoint: median tumor weight (est.), dose: 50.0 mg/kg/injection, schedule: Q07DX003 (ip), vehicle: suspension in saline, higher = larger tumour) 114 % of control; (endpoint: median tumor weight (est.), dose: 100.0 mg/kg/injection, schedule: Q07DX003 (ip), vehicle: suspension in saline, higher = larger tumour) 106 % of control. Moreover, the T/C (endpoint: median tumor weight (est.), dose: 200.0 mg/kg/injection, schedule: Q07DX003 (ip), vehicle: suspension in saline, higher = larger tumour) is 104 % of control and the T/C (endpoint: median tumor weight (est.), dose: 400.0 mg/kg/injection, schedule: Q07DX003 (ip), vehicle: suspension in saline, higher = larger tumour) was 85 % of control.
For the compound `CN(C)CCOc1ccc2c(c1)C/C(=C/c1ncc([N+](=O)[O-])n1C)C2=O`, the T/C reads like this: under setting [4], 76 % of control; under setting [5], 94 % of control; under setting [6], 106 % of control; under setting [7], 91 % of control; under setting [8], 106 % of control; under setting [9], 50 % of control.
On to `CC(=O)OCC1OC(n2ncc(=O)[nH]c2=O)C(OC(C)=O)C1OC(C)=O` (stereo not given), for which the T/C runs as follows: (endpoint: median tumor weight (est.), dose: 50.0 mg/kg/injection, schedule: Q07DX002 (ip), vehicle: suspension in saline, higher = larger tumour) 100 % of control; (endpoint: median tumor weight (est.), dose: 100.0 mg/kg/injection, schedule: Q07DX002 (ip), vehicle: suspension in saline, higher = larger tumour) 95 % of control; (endpoint: median tumor weight (est.), dose: 200.0 mg/kg/injection, schedule: Q07DX002 (ip), vehicle: suspension in saline, higher = larger tumour) 52 % of control; (endpoint: median tumor weight (est.), dose: 400.0 mg/kg/injection, schedule: Q07DX002 (ip), vehicle: suspension in saline, higher = larger tumour) 66 % of control; (endpoint: median tumor weight (est.), dose: 800.0 mg/kg/injection, schedule: Q07DX002 (ip), vehicle: suspension in saline, higher = larger tumour) 64 % of control.
On to `O=C1c2ccccc2C(=O)c2c(NCCNCCO)ccc(O)c21`, for which the T/C is, setting by setting: (endpoint: median tumor weight (est.), dose: 5.0 mg/kg/injection, schedule: Q07DX002 (ip), vehicle: suspension in saline, higher = larger tumour) 79 % of control and 95 % of control; (endpoint: median tumor weight (est.), dose: 10.0 mg/kg/injection, schedule: Q07DX002 (ip), vehicle: suspension in saline, higher = larger tumour) 94 % of control and 99 % of control; (endpoint: median tumor weight (est.), dose: 40.0 mg/kg/injection, schedule: Q07DX002 (ip), vehicle: suspension in saline, higher = larger tumour) 90 % of control and 96 % of control and 106 % of control; (endpoint: median tumor weight (est.), dose: 320.0 mg/kg/injection, schedule: Q07DX002 (ip), vehicle: suspension in saline, higher = larger tumour) 74 % of control.
Consider `CCCCCC[Se][Se]CCCCCC`, for which the T/C runs as follows: (endpoint: median tumor weight (est.), dose: 3.12 mg/kg/injection, schedule: Q07DX002 (ip), vehicle: Klucel (hydroxypropylcellulose) (HPC), higher = larger tumour) 100 % of control; under setting [1], 95 % of control.
Take `COc1cc(C2c3cc4c(cc3C(O)C(CO)C2CO)OCO4)cc(OC)c1OC` (stereo not given): the T/C is, setting by setting: under setting [4], 81 % of control; under setting [5], 155 % of control; under setting [6], 180 % of control; under setting [7], 203 % of control; under setting [8], 160 % of control; under setting [9], 174 % of control.
For the compound `CC(=O)Nc1ccc(Nc2ccc(C(=C3C=CC(=[N+](C)CCC#N)C=C3)c3ccc(N(C)CCC#N)cc3)cc2)cc1`, the T/C under setting [5] is 77 % of control and 93 % of control; the T/C under setting [6] was 91 % of control; the T/C under setting [7] is 52 % of control.

These data come from PubChem BioAssay AID212 (DTP/NCI, 2004).
